Measurements: patent US12673106B2, “Modulators of nuclear receptor subfamily 4 group A member 1 (NR4A1) and uses thereof” (University of Florida Research Foundation, Incorporated, priority 2020, dated 2026)

How the values were obtained:
NR4A1 [1] = target: T1, NR4A1 (Homo sapiens, UniProt P22736); experiment: E3 ligase-mediated NR4A1 degradation in transfected HEK293T cells (immunoblotting); format: cell-based; conditions: HEK293T transfected with NR4A1, with or without CRBN or VHL; 3 μM, 6 hrs
Experimental: FIG. 4A. Efficiency of NR4A1-Ps in protein degradation using 3 examples of NR4A1-Ps based on CRBN (NR-C91, 92, 93) and 4 based on VHL (NR-V03, 04, 07, 50), with NR-V04 showing the best efficacy in NR4A1 degradation. FIG. 4B. NR4A1 degradation is mediated by targeted E3 ligases. HEK293T cells were transfected with NR4A1, with or without overexpression of CRBN or VHL. 36 hrs after transfection, cells were treated with 3 μM of NR-C91 or NR-V04 for 6 hrs for immunoblotting.
(§1) Developing NR4A1-Ps. Due to the diverse function of NR4A1 in different cancer types, both agonistic and antagonistic ligands of NR4A1 are of interest in development (25). […] 4 cytosporone-B-based and 10 celastrol-based NR4A1-Ps using polyethylene glycol (PEG) linkers of various length have already been synthesized (FIG. 3 showing several examples).

NR4A1 [2] = target: T1, NR4A1; experiment: Degradation of endogenous NR4A1 in T47D breast cancer cells; format: cell-based; parameters: degrade endogenous NR4A1 in T47D breast cancer cells; endogenous in cells; host or cells: T47D breast cancer cells; conditions: 1 μM
T47D cells = experiment: MTS viability assay, T47D cells; format: cell-based; conditions: relative to celastrol or NR-V04-NT
Excerpt: (§2) NR4A1-Ps selectively kill breast cancer cells. Since NR-V04 is very efficient in NR4A1 degradation, a negative control, NR-V04-NT, was synthesized.

MCF10A = experiment: MTS viability assay, MCF10A normal breast epithelial cells; format: cell-based, human; conditions: relative to celastrol
Excerpt: as §2

B16F10 melanoma [3] = experiment: B16F10 melanoma model in C57BL/6J mice; format: in vivo, mouse
Experimental: (§3) FIG. 10A-10C. […] Tumor growth were monitored via palpation. N=7 mice/group. FIG. 10A and FIG. 10B are the same experiment, but FIG. 10B includes only control vehicle and NR-V04 treated groups in FIG. 10B.
(§4) FIG. 13A-FIG. 13C. Influence of NR-V04 treatment on TI-Tregs from (FIG. 13A) B16F10 melanoma, 1.8 mg/kg twice weekly for 3 weeks; (FIG. 13B) RENCA renal cancer model, 20 mg/kg once a week for 3 weeks; (FIG. 13C-13D) Py8119 breast cancer model, 8 mg/kg once a week for 3 weeks; with FIG. 13C showing the ratios between Treg/Tconv and FIG. 13D showing Treg/CD8+ T cell ratios.

B16F10 melanoma [4] = experiment: B16F10 melanoma model in NSG mice; format: in vivo, mouse; conditions: 1.8 mg/kg twice weekly for 3 weeks
Excerpt: as §3

RENCA cells = experiment: RENCA renal cancer model in Balb/C mice; format: in vivo, mouse
Experimental: RENCA cells (10,000 per injection) were injected into s.c. of 8-week Balb/C mice, following with vehicle or NR-V04 treatment i.p. at 8 mg/kg weekly, starting at day 15 after tumor cell injection. Tumor volume was recorded.
as §4
Some of the above tumor models will be included, initially using immune responsive tumors including RENCA and MC38 model. […] Tumor volumes will be determined twice weekly by a caliper and calculated as length×width^2×0.5. Animal will be terminated once the largest tumors reach 2 cm in diameter per IACUC protocol (size is justified to determine lung metastasis). • The parameters include: • Primary tumors—Tumors will be cut into pieces and used for: a) immunohistochemical (IHC) staining (embedding in OCT compound and freezing). […]

human T cells from PBMC = experiment: T cells from human PBMC of cancer patients, CD3/CD28 co-stimulated, flow cytometry; format: cell-based; conditions: 500 nM or 1 uM, two days
Experimental: T cells were purified from human PBMC from cancer patients and co-stimulated with anti-CD3/CD28 dynabeads for 3 days, following with DMSO, 500 nM or 1 uM of NR-V04 treatment for two days. FIG. 14A-14B, different sub-population of T cell numbers were quantitated via flow cytometry (FIG. 14A), with Treg panel separated (FIG. 14B).
In agreement with the in vivo models, we also activated all human T cells from PBMC of cancer patients, following with the treatment of various concentrations of NR-V04.

NR4A1 [5] = target: T2, NR4A1 (Mus musculus, UniProt P12813); experiment: NR4A1 degradation in MC38 tumors of treated mice (tumor lysate immunoblotting); format: in vivo; conditions: MC38-tumor bearing mice, 1.8 mg/kg twice weekly for 3 weeks
T2 construct: from tissue; host or cells: MC38 tumors from treated tumor-bearing mice (tumor lysates)
Excerpt: Tumor lysates were used for immunoblotting.
as §1

MCF7-Tam cells = experiment: MTS viability assay, MCF7-Tam cells; format: cell-based; conditions: relative to celastrol or NR-V04-NT
Excerpt: as §2

Py8119 cells = experiment: Py8119 breast cancer model in C57/BL6 mice; format: in vivo, mouse
Experimental: FIG. 7A-FIG. 7D. Py8119 cells were injected into #4 mammary fatpad of 8-week female C57/BL6 mice, following with vehicle or NR-V04 treatment i.p. at 8 mg/kg weekly, starting at day 15 after tumor cell injection. Body weight (FIG. 7A), tumor growth (data not shown), and immune cell profiling by flow cytometry from spleen, tumor, and blood were shown (FIG. 7B-7D). CD45+CD3+CD8+ T cells (FIG. 7B), CD45+CD3+CD4+T (FIG. 7C), and ratios of CD4+Foxp3+Tregs to total T cells (T), to total CD4 T cells (CD4), to total CD4conv (non Treg CD4 T cells), or to CD8 T cells (FIG. 7D) were shown. * P<0.05; ** P<0.01.
as §4
Syngeneic models for antitumor activities. Syngeneic tumor models include breast cancer models: 1) E0771 as luminal breast cancer (C57BL/6 background) (36-38), 2) Py8119 (C57BL/6) (37, 39, 40) and 3) 4T1 (Balb/C) (41, 42) as triple negative breast cancer, and 4) MT2 as HER2-positive breast cancer (FVB/N) (43, 44), all of which develop metastasis upon orthotopic tumor injections; 5) MC-38 colon cancer model; 6) Renca renal carcinoma model; 7) B16 melanoma models. MC-38 is known to be responsive to ICIs and Renca is known to respond of Treg suppression in their tumor growth. B16 is only partially responsive to ICI treatment when anti-CTLA-4 and anti-PD-1 are combined. Careful titration of the minimal cell numbers provides consistent tumor growth and/or metastasis. For testing the efficacy of NR-V04 or other leads, tumor-bearing mice will be treated with either non-targeting NR-V04-NT or NR-V04, or other leads, starting 14 days after tumor cell injection when 3-5 mm in diameter tumor growth is typically seen in all models. The dose and frequency will be used based on the data from SA1.2. Based on work on BCL-XL PROTAC (22), weekly injection of the leads should be sufficient to maintain effective doses in various tissues.

[6] = Pharmacokinetics in mouse, plasma by LC/MS/MS; format: in vivo
Experimental: Plasma concentrations of NR-V04 were determined by LC/MS/MS (Instrument: AB Sciex 6500 (#15)) using service from BioDuro Inc, at different time points after mice receiving iv injection of 2 mg/kg or ip injection of 20 mg/kg. PK values for iv (2 mg/kg, FIG. 17A) or ip (20 mg/kg, FIG. 17B) are shown and summarized (FIG. 17C).
PK was determined for NR-V04 for iv. injection of 2 mg/kg or ip injection of 20 mg/kg (FIG. 17).

OT-1 CD8 T cells = experiment: OVA peptide-induced exhaustion of OT-1 CD8 T cells, flow cytometry; format: cell-based, mouse; conditions: 1 μM
Experimental: Splenic CD8+ T cells were purified from OT-1 transgenic mice, treated with 10 ng/ml of OVA peptides for 5 days, following with NR-V04 treatment at 250 nM, 500 nM or 1 μM. CD39+, granzyme B+(P<0.0001), Lag3+ or PD-1+CD8 T cells (P<0.05) were quantitated using flow cytometry.
To induce antigen specific exhaustion of CD8^+ T cells, we purified CD8^+ T cells from OT-1 mice that expresses T cell receptor targeting OVA antigen. We treated these OT-1 CD8 T cells with OVA peptide for 5 days to induce their exhaustion, following with NR-V04 treatment with various concentrations.

CD8+ T cells = experiment: CD8 T cell activation in B16F10 tumor bearing mice, flow cytometry; format: in vivo, mouse; conditions: 1.8 mg/kg, one week (two doses)
Experimental: B16F10 tumor bearing mice were treated with control vehicle or 1.8 mg/kg of NR-V04 for one week (two doses). CD8 T cells were analyzed for activation from tumors, spleen and blood. FIG. 15A. CD44+CD62L+(central memory, CM) and FIG. 15B. CD44+CD62L− (effector memory, EM) of CD8+ T cells were quantitated using flow cytometry.
We also determined the impact of NR-V04 on exhaustion and activation of CD8^+ T cells.

[7] = Body weight and T cell development in normal mice; format: in vivo, mouse; conditions: up to 3 weeks
Excerpt: Thymus (FIG. 12A) and spleen (FIG. 12B) were collected for T cell quantitation by flow cytometry.

[8] = Toxicity and body weight in tumor-bearing mice (FIG. 11); format: in vivo; conditions: 0.75 mg/kg celastrol twice weekly for 3 weeks
Experimental: Body weight was recorded weekly.

NR4A1 [9] = target: T1, NR4A1; parameters: degrade endogenous NR4A1 in T47D breast cancer cells; endogenous in cells; host or cells: T47D breast cancer cells; conditions: NR4A1 ligand used as warhead; cited from earlier work

T1 sequence (P22736 whole entry, species assumed): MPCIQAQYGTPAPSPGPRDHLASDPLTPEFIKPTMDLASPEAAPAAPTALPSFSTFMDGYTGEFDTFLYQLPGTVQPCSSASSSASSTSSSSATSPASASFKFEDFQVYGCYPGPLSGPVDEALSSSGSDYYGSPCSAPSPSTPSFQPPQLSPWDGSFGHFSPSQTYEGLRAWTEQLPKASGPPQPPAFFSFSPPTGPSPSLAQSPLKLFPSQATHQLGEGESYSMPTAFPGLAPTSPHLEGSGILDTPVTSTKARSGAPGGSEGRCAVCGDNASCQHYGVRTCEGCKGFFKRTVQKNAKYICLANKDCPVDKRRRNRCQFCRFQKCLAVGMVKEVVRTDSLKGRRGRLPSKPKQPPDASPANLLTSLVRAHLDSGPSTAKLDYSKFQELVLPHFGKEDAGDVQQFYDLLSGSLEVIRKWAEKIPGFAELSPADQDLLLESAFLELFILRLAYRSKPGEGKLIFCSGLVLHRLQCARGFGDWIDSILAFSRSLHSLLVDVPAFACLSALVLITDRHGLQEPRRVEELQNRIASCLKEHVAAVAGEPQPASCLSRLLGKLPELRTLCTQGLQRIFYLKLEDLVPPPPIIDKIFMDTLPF
T2 sequence (P12813 whole entry): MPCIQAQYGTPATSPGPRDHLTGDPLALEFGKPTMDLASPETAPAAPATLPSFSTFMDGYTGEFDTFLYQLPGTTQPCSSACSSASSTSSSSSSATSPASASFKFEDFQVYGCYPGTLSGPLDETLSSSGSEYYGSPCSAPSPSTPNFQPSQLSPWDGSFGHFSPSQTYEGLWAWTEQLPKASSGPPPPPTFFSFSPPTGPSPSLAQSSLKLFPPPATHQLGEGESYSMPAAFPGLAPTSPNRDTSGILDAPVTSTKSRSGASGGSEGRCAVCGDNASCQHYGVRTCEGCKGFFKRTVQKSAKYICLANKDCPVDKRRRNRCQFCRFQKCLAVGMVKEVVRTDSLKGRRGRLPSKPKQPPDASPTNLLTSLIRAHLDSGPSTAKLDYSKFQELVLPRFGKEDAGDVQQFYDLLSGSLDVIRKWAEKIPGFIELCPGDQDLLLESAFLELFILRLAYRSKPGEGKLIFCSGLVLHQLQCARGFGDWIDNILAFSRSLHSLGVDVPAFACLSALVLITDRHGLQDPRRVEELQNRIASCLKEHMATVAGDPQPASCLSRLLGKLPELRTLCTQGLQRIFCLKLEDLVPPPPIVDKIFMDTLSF

In the case of `CC1=C(O)C(=O)C=C2C1=CC=C1[C@@]2(C)CC[C@@]2(C)[C@@H]3C[C@](C)(C(=O)NCCOCCNc4cccc5c4C(=O)N(C4CCC(=O)NC4=O)C5=O)CC[C@]3(C)CC[C@]12C` (stereo partly drawn) [NR-C91], the “NR4A1 degradation with overexpression of the corresponding E3 ligase” value (NR4A1 [1]) is reported as “overexpression of their corresponding E3 ligases facilitated NR4A1-P-mediated degradation of NR4A1” and the NR4A1 degradation (NR4A1 [2]) is reported as “led to the degradation of NR4A1, but not as efficiently as NR-V04”.
For `CC1=C(O)C(=O)C=C2C1=CC=C1[C@@]2(C)CC[C@@]2(C)[C@@H]3C[C@](C)(C(=O)NCCOCCOCCOCCOCC(=O)N[C@H](C(=O)N4C[C@H](O)C[C@H]4C(=O)N[C@@H](C)c4ccc(-c5scnc5C)cc4)C(C)(C)C)CC[C@]3(C)CC[C@]12C` [NR-V04], the “cell killing (% viability)” value (T47D cells) was “more robust killing relative to celastrol or NR-V04-NT”, the “toxicity to normal cells (% viability)” value (MCF10A) was “less toxic” and the TI-Tregs (B16F10 melanoma [3]; B16F10, 1.8 mg/kg twice weekly for 3 weeks) was “decreased TI-Tregs”. For the same compound, the tumor growth (B16F10 melanoma [3]; B16F10 in C57BL/6J male mice, 1.8 mg/kg NR-V04 or 0.75 mg/kg celastrol twice weekly for 3 weeks) was “significantly reduces tumor growth”, the “NR4A1 degradation with overexpression of the corresponding E3 ligase” value (NR4A1 [1]) was “overexpression of their corresponding E3 ligases facilitated NR4A1-P-mediated degradation of NR4A1” and the tumor suppressing effect (B16F10 melanoma [4]) was “this effect is diminished”. For the same compound, the tumor volume (RENCA cells; 8 mg/kg i.p. weekly from day 15) was “significant reduction”, the TI-Tregs (RENCA cells; 20 mg/kg once a week for 3 weeks) was “decreased TI-Tregs” and the “T cell populations other than Tregs” value (human T cells from PBMC) was “no impact on various T cell populations”. The Tregs (human T cells from PBMC) was “selectively elimination of Tregs”, the NR4A1 degradation (NR4A1 [2]) was “best efficiency in inducing NR4A1 degradation” and the “degradation of NR4A1 within tumors” value (NR4A1 [5]) was “efficient degradation of target protein NR4A1”. The “cell killing (% viability)” value (MCF7-Tam cells) was “more robust killing relative to celastrol or NR-V04-NT”, the “overall CD4+ and CD8+ T cells” value (Py8119 cells; Py8119, 8 mg/kg i.p. weekly) was “without influencing overall CD4+ and CD8+ T cells” and the “tumor-infiltrating Tregs versus effector T cell ratio” value (Py8119 cells; Py8119, 8 mg/kg i.p. weekly) was “On-target decrease”. The tumor growth (Py8119 cells; Py8119, 8 mg/kg i.p. weekly from day 15) was “Tumor growth difference was not observed”, the body weight (Py8119 cells; Py8119, 8 mg/kg i.p. weekly, day 25 or 30) was “no difference in body weight” and the average half-life ([6]; ip injection 20 mg/kg) was 8.58 h. For the same compound, the average half-life ([6]; iv injection 2 mg/kg) was 5.36 h, the “granzyme B+ active CD8 T cells” value (OT-1 CD8 T cells) was “increase” and the “percent of Lag3+ exhausted CD8 T cells” value (OT-1 CD8 T cells) was “significantly reduced”. For the same compound, the “percent of PD-1+ exhausted CD8 T cells” value (OT-1 CD8 T cells) was “significantly reduced”, the “central memory CD8+ T cells (CD44+CD62L+)” value (CD8+ T cells) was “no significant change” and the “effector memory population of CD8+ T cells (CD44+CD62L−)” value (CD8+ T cells) was “significant increase”. The body weight [7] was “did not influence the body weight” and the “development of T cells in thymus and spleen” value [7] was “did not change the normal development of T cells”.
With `CC1=C(O)C(=O)C=C2C1=CC=C1[C@@]2(C)CC[C@@]2(C)[C@@H]3C[C@](C)(C(=O)O)CC[C@]3(C)CC[C@]12C` [celastrol] the body weight [8] was “significant body weight change”.
In the case of `CCCCCCCC(=O)c1c(O)cc(O)cc1CC(=O)OCC` [cytosporone-B], the Kd (NR4A1 [9]) is given as 1680 nM.
